{
  "source": "patent EP0023103A1",
  "about": "“Antifungal imidazole derivatives, process for their preparation and pharmaceutical compositions thereof” (Pfizer Limited, priority 1979, dated 1981)",
  "data": [
    {"test_system": "Candida albicans", "assay": "In vitro anti-fungal activity: minimum inhibitory concentration (m.i.c.) on agar plates", "assay_type": "cell-based", "details": "geometrical mean of results against a panel of 12 strains of Candida albicans; agar plates incubated for 48 hours at 37°C", "values": [
      {"compound": "C=CCCC(O)(Cn1ccnc1)c1ccc(Cl)cc1Cl", "note": "(stereo not shown) [Example 11]", "Mean m.i.c.": 6.8},
      {"compound": "CC(C)CCC(O)(Cn1ccnc1)c1ccc(Cl)cc1Cl", "note": "(stereo not shown) [Example 18]", "Mean m.i.c.": 3.8},
      {"compound": "CC(C)C(O)(Cn1ccnc1)c1ccc(Cl)cc1Cl", "note": "(stereo not shown) [Example 8]", "Mean m.i.c.": 21.0},
      {"compound": "CCCC(O)(Cn1ccnc1)c1ccc(Cl)cc1Cl", "note": "(stereo not shown) [Example 2, 2-(2,4-Dichlorophenyl)-1-(1-imidazolyl)-pentan-2-ol]", "Mean m.i.c.": 12.5},
      {"compound": "C=CC(C)C(O)(Cn1ccnc1)c1ccc(Cl)cc1Cl", "note": "(single isomer, unassigned) [Example 3a, 2-(2,4-Dichlorophenyl)-1-(1-imidazolyl)-3-methyl-pent-4-en-2-ol]", "Mean m.i.c.": 18.0},
      {"compound": "CC(C)CC(O)(Cn1ccnc1)c1ccc(Cl)cc1Cl", "note": "(stereo not shown) [Example 16]", "Mean m.i.c.": 5.6},
      {"compound": "CCCCCC(O)(Cn1ccnc1)c1ccc(Cl)cc1Cl", "note": "(stereo not shown) [Example 9]", "Mean m.i.c.": 5.2},
      {"compound": "CCCCCCCC(O)(Cn1ccnc1)c1ccc(Cl)cc1Cl", "note": "(stereo not shown) [Example 19]", "Mean m.i.c.": 5.6},
      {"compound": "CCCCC(O)(Cn1ccnc1)c1ccc(Cl)cc1Cl", "note": "(stereo not shown) [Example 6]", "Mean m.i.c.": 3.8},
      {"compound": "C=CCC(O)(Cn1ccnc1)c1ccc(Cl)cc1Cl", "note": "(stereo not shown) [Example 1, 2-(2,4-Dichlorophenyl)-1-(1-imidazolyl)-pent-4-en-2-ol]", "Mean m.i.c.": 22.0},
      {"compound": "CCCCC(O)(Cn1ccnc1)c1ccccc1Cl", "note": "(stereo not shown) [Example 21, 2-(2-Chlorophenyl)-1-(1-imidazolyl)-hexan-2-ol]", "Mean m.i.c.": 18.0},
      {"compound": "CCCCC(O)(Cn1ccnc1)c1ccc(Cl)cc1", "note": "(stereo not shown) [Example 20, 2-(4-Chlorophenyl)-1-(1-imidazolyl)-hexan-2-ol]", "Mean m.i.c.": 38.0},
      {"compound": "C=CC(C)C(O)(Cn1ccnc1)c1ccc(Cl)cc1Cl", "note": "(single isomer, unassigned) [Example 3b, 2-(2,4-Dichlorophenyl)-1-(1-imidazolyl)-3-methyl-pent-4-en-2-ol]", "Mean m.i.c.": 11.0},
      {"compound": "OC(CC1CC1)(Cn1ccnc1)c1ccc(Cl)cc1Cl", "note": "(stereo not shown) [Example 15]", "Mean m.i.c.": 6.3},
      {"compound": "CCC(C)C(O)(Cn1ccnc1)c1ccc(Cl)cc1Cl", "note": "(stereo not shown) [Example 4, 2-(2,4-Dichlorophenyl)-1-(1-imidazolyl)-3-methyl-pentan-2-ol]", "Mean m.i.c.": 12.0},
      {"compound": "C=CCCCC(O)(Cn1ccnc1)c1ccc(Cl)cc1Cl", "note": "(stereo not shown) [Example 17]", "Mean m.i.c.": 8.4},
      {"compound": "CC(C)(C)C(O)(Cn1ccnc1)c1ccc(Cl)cc1Cl", "note": "(stereo not shown) [Example 7]", "Mean m.i.c.": 11.0},
      {"compound": "CCCCCCC(O)(Cn1ccnc1)c1ccc(Cl)cc1Cl", "note": "(stereo not shown) [Example 10, 2-(2,4-dichlorophenyl)-1-(1-imidazolyl)-octan-2-ol]", "Mean m.i.c.": 3.1},
      {"compound": "CCC(O)(Cn1ccnc1)c1ccc(Cl)cc1Cl", "note": "(stereo not shown) [Example 5, 2-(2,4-dichlorophenyl)-1-(1-imidazolyl)-butan-2-ol]", "Mean m.i.c.": 21.0}
    ]}
  ]
}
